Source: PMC6268079, “Synthesis and Biological Evaluation of 2-(3-Fluoro-4-nitro phenoxy)-N-phenylacetamide Derivatives as Novel Potential Affordable Antitubercular Agents” (Molecules, 2012)
Converted amounts (≈) assume the structure as drawn.

Key:
[1] = system: Isoniazide-resistant TB 242; assay: microbe, parasite or virus in culture; type: cell-based; settings: Mycobacterium tuberculosis
[2] = system: Rifampicin-resistant TB 261; assay: microbe, parasite or virus in culture; type: cell-based; settings: Mycobacterium tuberculosis

Structure (SMILES) | MIC [1] | MIC [2]
O=C(COc1ccc([N+](=O)[O-])c(F)c1)Nc1ccccc1[N+](=O)[O-] [Compound 3m, 2-(3-Fluoro-4-nitrophenoxy)-N-(2-nitrophenyl)acetamide] | 32 µg/mL (≈ 95.5 µM) | 4 µg/mL (≈ 11.9 µM)
COC(=O)COc1ccc(NC(=O)COc2ccc(C)cc2C)cc1 [I, methyl 2-(4-(2-(2,4-dimethylphenoxy)acetamido)phenoxy)acetate] | 16 µg/mL (≈ 46.6 µM) | 4 µg/mL (≈ 11.6 µM)
NNC(=O)c1ccncc1 [Isoniazide] | 0.5 µg/mL (≈ 3.65 µM) | 0.125 µg/mL (≈ 0.911 µM)
CO[C@H]1/C=C/O[C@@]2(C)Oc3c(C)c(O)c4c(O)c(c(/C=N/N5CCN(C)CC5)c(O)c4c3C2=O)NC(=O)/C(C)=C\C=C\[C@H](C)[C@H](O)[C@@H](C)[C@@H](O)[C@@H](C)[C@H](OC(C)=O)[C@@H]1C [Rifampicin] | ≤ 0.25 µg/mL | > 32 µg/mL
